In the assay the test system is gastric submucosal thrombi. Briefly: Inhibition of gastric submucosal thrombi (Example 30). It is filed as in vivo, rat. Conditions: 10 mg/kg IV. How it is done: Thrombosis was induced in rat stomach submucosal blood vessels by the following two-step treatment. First, 1.5 ml of 100 percent ethanol was administered by oral gavage. This produces non-specific injury to tissues and blood vessels of the gastric mucosa. Second, 1.0 mg of adenosine diphosphate (ADP) in 1.0 ml of H2 O, was administered by oral garage 15 minutes after the administration of ethanol. Administration of ADP biases the organ response towards thrombosis by inducing platelet aggregation.
The pathology generated is typically a disseminated pattern of multiple small thrombi, observed on examination of the gastric mucosa, 1-3 hours after ethanol administration. These thrombi are dark red, dilated, thrombosed submucosal blood vessel segments, each being approximately 1 mm thick and 2 to 6 mm long.
In these studies, animals were treated with drug or centrol at one hour prior to ethanol administration. Thrombosis was induced as discussed before, and animals were sacrificed at 1.5 hours after ethanol administration. Focal thrombi were then counted. In this study, n=9-10.

Counter-ions that a name gives are not always drawn.

Take `CC1(C)O[C@H]2O[C@H]([C@@H](COS(=O)(=O)O)OS(=O)(=O)O)[C@H](OS(=O)(=O)O)[C@H]2O1` [Compound III, 1,2-O-(2-Propylidene)-3,5,6-tri-O-sulfo-α-D-glucofuranose, tripotassium salt]: the “Drug Effect on thrombi” value is given as -62.3%. Moreover, under “ethanol + ADP, control 10.60 ± 1.42”, the “Mean Thrombi per Stomach, ±SE” value worked out at 4.00 ± 1.12 per Stomach.

(Values after patent publication US5358936A, “Anionic furanose derivatives, methods of making and using the same” (Gordon; Paul, priority 1991, dated 1994).)
